The source of these data is article PMC5543288, “Psychostimulant Effect of the Synthetic Cannabinoid JWH-018 and AKB48: Behavioral, Neurochemical, and Dopamine Transporter Scan Imaging Studies in Mice” (Frontiers in Psychiatry, 2017).

For one test, the target named is T1, human DAT (Homo sapiens, UniProt Q01959).
T1 construct: purchased Perkin Elmer; host or cells: CHO cells transfected with human DAT (membrane preparation)
Nature of the test: [3H]-WIN 35,428 competition binding, CHO membranes transfected with human DAT. As to the method: At the end of the incubation time, bound and free radioactivity were separated by filtering the assay mixture through Whatman GF/B glass fiber filters in a Brandel cell harvester (Brandel, Unterföhring, Germany).

Test [1] concerns the target T2, dopamine transporter (DAT) in the mouse striatum (Mus musculus, UniProt Q61327).
T2 construct: from tissue; host or cells: striatum of living CD-1 male mice (in vivo imaging)
In words: In vivo DaTSCAN SPECT-CT imaging, striatal [123I]-FP-CIT binding. The conditions noted are these: i.p. 30 min before tracer: cocaine 20 mg/kg, amphetamine 10 mg/kg, JWH-018 1 mg/kg, AKB48 1 mg/kg.
Procedure: 18 CD-1 male mice were divided into six different groups (three mice per treatment). […] A control group (i.e., naïve untreated mice) was also included in the study. Thirty minutes after drug administration, all mice were submitted to an intravenous injection with a solution of [^123I]-DaTSCAN (15–20 MBq, ≤200 µl). The body temperature of the animals was maintained at 37°C during the imaging sessions and under the cage, between imaging sessions, using a heating lamp. The SPECT–CT whole-body images were acquired at 1 h and 30 min after [^123I]-FP-CIT injection, with the initial tomographic acquisition starting nearly 15 min after the injection. Each SPECT-CT whole-body acquisition consisted of one bed positions (36 mm), 60 min, 128 views over 360 ([35]). The used energy window is 119–219 keV and the images were reconstructed by using the iterative EM-ML algorithm, including the collimator response. CT images have been acquired, using the digital X-ray imaging system integrated into the YAP(S)PET scanner ([36]). Acquisition parameters for X-ray projections were X-ray tube voltage = 35 keV, anode current = 1 mA, exposure = 1 s, 64 views over 360, and magnification factor = 1.2. Subtraction of dark noise contribution and flat field corrections was accomplished to obtain final images. The CT data were reconstructed by using the FDK algorithm. Amide software ([37]) has been used for images’ registration, visualization and analysis. The size of the ROIs was voxels (100 mm^3 volume), corresponding to entire striatum. These ROIs were used as a template. To avoid the variability of the slice selection and to gain statistical power, the entire striatum volume for the analysis was used. The template was positioned manually (without changing the size and form of the ROIs) on the SPECT images with the backing of anatomical information from LONI MAP 2003 MRI mouse atlas ([38], [39]). For analysis of striatal [^123I]-FP-CIT binding, two consecutive horizontal slices (total thickness approximately 4 mm) with the highest striatal binding were selected. The landmarks for positioning were the intra-orbital glands, striatum, and the borders of the brain. Striatal binding ratios are expressed as average activity per unit volume [Bq/mm^3], each value has been calculated as the ratio between the activity inside the ROI and the ROI volume, normalized for injected activity and for mouse brain weight.

For test [2], the target named is CD-1 murine CB1 receptors. Conditions: ref [6]; read-out: Ki for CB1 receptors, CD-1 murine preparation; cited from earlier work.
The subject of test [3] is GABAA-mediated post-synaptic currents in VTA DA neurons. Also noted: method as in PMID 26686391, PMID 25232109, PMID 28373077. Conditions: rat VTA DA neurons, ex vivo; ref [26], [82], [83]; cited from earlier work.

T1 sequence (Q01959 whole entry): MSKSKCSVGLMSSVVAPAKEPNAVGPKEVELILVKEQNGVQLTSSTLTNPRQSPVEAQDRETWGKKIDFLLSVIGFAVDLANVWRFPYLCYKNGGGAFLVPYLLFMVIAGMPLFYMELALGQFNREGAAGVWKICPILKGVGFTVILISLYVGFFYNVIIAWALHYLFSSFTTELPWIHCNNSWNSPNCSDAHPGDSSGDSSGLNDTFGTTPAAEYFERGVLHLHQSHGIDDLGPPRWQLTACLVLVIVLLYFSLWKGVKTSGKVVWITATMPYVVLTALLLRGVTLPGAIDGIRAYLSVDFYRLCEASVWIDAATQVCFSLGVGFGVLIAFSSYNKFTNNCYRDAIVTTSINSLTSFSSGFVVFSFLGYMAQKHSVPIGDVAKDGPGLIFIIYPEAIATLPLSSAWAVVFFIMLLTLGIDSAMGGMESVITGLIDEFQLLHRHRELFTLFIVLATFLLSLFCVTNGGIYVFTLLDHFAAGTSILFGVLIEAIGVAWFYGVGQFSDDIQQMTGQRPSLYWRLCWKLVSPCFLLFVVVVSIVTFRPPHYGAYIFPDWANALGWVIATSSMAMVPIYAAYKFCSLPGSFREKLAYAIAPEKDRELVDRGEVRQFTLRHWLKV
T2 sequence (Q61327 whole entry): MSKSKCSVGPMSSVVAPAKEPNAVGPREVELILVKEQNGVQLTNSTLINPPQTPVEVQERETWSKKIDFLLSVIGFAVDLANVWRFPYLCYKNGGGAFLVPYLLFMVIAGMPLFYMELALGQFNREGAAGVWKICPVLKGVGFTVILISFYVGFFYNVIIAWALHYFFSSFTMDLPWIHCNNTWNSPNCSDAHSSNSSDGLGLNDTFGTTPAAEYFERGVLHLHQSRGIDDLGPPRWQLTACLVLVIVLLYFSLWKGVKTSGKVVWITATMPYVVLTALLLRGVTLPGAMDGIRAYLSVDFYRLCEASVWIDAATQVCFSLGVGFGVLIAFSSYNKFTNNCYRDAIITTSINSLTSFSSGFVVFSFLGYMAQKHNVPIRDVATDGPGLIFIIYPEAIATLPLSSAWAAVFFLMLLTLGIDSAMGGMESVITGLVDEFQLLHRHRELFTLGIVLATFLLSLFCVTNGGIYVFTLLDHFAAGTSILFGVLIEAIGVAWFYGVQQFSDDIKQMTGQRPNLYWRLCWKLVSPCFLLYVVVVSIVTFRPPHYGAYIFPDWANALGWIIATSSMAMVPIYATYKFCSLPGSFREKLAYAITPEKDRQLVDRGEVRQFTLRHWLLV

In the case of `CCCCCn1cc(C(=O)c2cccc3ccccc23)c2ccccc21` [JWH-018, 1-pentyl-3-(1-naphthoyl)indole], the Ki at human DAT is 7.18 µM; in test [2], 0.00582 µM. Besides, the “reduction of [123I]-FP-CIT binding in the striatum” value in test [1] was ~ 39%. Besides, the GABAA-mediated post-synaptic currents result in test [3] is recorded as “decreases”.
